Measurements taken from patent US20250059187A1, “COVALENTLY BINDING INHIBITORS OF G12S, G12D AND/OR G12E MUTANTS OF K-RAS GTPASE” (The Regents of the University of California, priority 2021, published 2025).
Entries after “also recorded” stand apart in the source; their conditions may differ.

Legend:
[1] = molecular target: T1, wild type K-Ras (Homo sapiens, UniProt P01116); experiment: Covalent modification of test protein after incubation with compound; format: binding; details: 24-h incubation with 100 μM compound at 23° C. at pH 7.5
T1 construct: human K-Ras (wildtype, aa 1-169); 6xHis tag + TEV cleavage site (N, cleaved yes); made in house; host or cells: E. coli BL21(DE3)

[2] = molecular target: T2, K-Ras G12D (Homo sapiens, UniProt P01116, G12D); experiment: as above; format: binding; details: 24-h incubation with 100 μM compound at 23° C. at pH 7.5
T2 construct: human K-Ras (G12D, aa 1-169); 6xHis tag + TEV cleavage site (N, cleaved yes); made in house; host or cells: E. coli BL21(DE3)

[3] = molecular target: T3, K-Ras G12E (Homo sapiens, UniProt P01116, G12E); experiment: as above; format: binding; details: 24-h incubation with 100 μM compound at 23° C. at pH 7.5
T3 construct: human K-Ras (G12E, aa 1-169); 6xHis tag + TEV cleavage site (N, cleaved yes); made in house; host or cells: E. coli BL21(DE3)

[4] = molecular target: T4, interaction between Raf-RBD and K-Ras(G12D) (Homo sapiens, UniProt P01116, G12D); experiment: Time-resolved fluorescence energy transfer assay, Raf-RBD and K-Ras(G12D); format: biochemical; details: dose-dependent
T4 construct: human K-Ras (G12D, aa 1-169); 6xHis tag + TEV cleavage site (N); made in house; host or cells: E. coli BL21(DE3) for K-Ras

[5] = molecular target: T5, K-Ras(G12S) (Homo sapiens, UniProt P01116, G12S); experiment: Covalent modification of recombinant K-Ras(G12S) by whole-protein mass spectrometry; format: binding; parameters: human K-Ras (G12S, aa 1-169); 6xHis tag + TEV cleavage site (N, cleaved yes); made in house; host or cells: E. coli BL21(DE3); details: for extent of modification of K-Ras(G12S)·GDP: 10 μM compound, 4 μM protein
Method: (§1) Test compounds were prepared as 100× stock solutions in DMSO. K-Ras proteins were diluted with SEC Buffer (20 mM HEPES 7.5, 150 mM NaCl, 1 mM MgCl2) to 400 nM or 1 μM. In a typical reaction, 0.5 μL 100× compound stock was mixed with 50 μL diluted K-Ras protein, and the resulting mixture was incubated for the desired amount of time. The extent of modification was assessed by electrospray mass spectrometry using a Waters Xevo G2-XS system equipped with an Acquity UPLC BEH C4 1.7 μm column. […] For kinetic measurements, a 2× compound solution was first prepared in SEC Buffer, which was then mixed with 400 nM K-Ras(G12S) protein at 1:1 (v/v) ratio. Injection time stamps were used to calculate elapsed time.
as §1, with “K-Ras(G12D)” for “K-Ras(G12S)”

[6] = molecular target: T1, wild type K-Ras; experiment: Covalent modification of recombinant wild-type K-Ras by whole-protein mass spectrometry; format: binding; details: 23° C.
Method: (§2) Test compounds were prepared as 100× stock solutions in DMSO. K-Ras proteins were diluted with SEC Buffer (20 mM HEPES 7.5, 150 mM NaCl, 1 mM MgCl2) to 400 nM or 1 μM. In a typical reaction, 0.5 μL 100× compound stock was mixed with 50 μL diluted K-Ras protein, and the resulting mixture was incubated for the desired amount of time. The extent of modification was assessed by electrospray mass spectrometry using a Waters Xevo G2-XS system equipped with an Acquity UPLC BEH C4 1.7 μm column. The mobile phase was a linear gradient of 5-95% acetonitrile/water+0.05% formic acid. For kinetic measurements, a 2× compound solution was first prepared in SEC Buffer, which was then mixed with 400 nM K-Ras(G12S) protein at 1:1 (v/v) ratio. Injection time stamps were used to calculate elapsed time.
as §2, with “K-Ras(G12D)” for “K-Ras(G12S)”

[7] = molecular target: T6, K-Ras(G12S)·GDP (Homo sapiens, UniProt P01116, G12S); experiment: Differential scanning fluorimetry of K-Ras(G12S)·GDP and its adduct; format: binding
T6 construct: human K-Ras (G12S, aa 1-169); 6xHis tag + TEV cleavage site (N, cleaved yes); made in house; host or cells: E. coli BL21(DE3)
Method: The protein of interest was diluted with SEC Buffer [20 mM HEPES 7.5, 150 mM NaCl, 1 mM MgCl2] to 8 μM. This solution was dispensed into wells of a white 96-well PCR plate in triplicate (25 μL/well). Fluorescence was measured at 0.5-° C. temperature intervals every 30 s from 25° C. to 95° C. on a Bio-Rad CFX96 qPCR system using the FRET setting. Each data set was normalized to the highest fluorescence and the normalized fluorescence reading was plotted against temperature in GraphPad Prism 8.0. Tm values were determined as the temperature(s) corresponding to the maximum(ma) of the first derivative of the curve.

[8] = molecular target: T5, K-Ras(G12S); experiment: Sos- or EDTA-mediated nucleotide exchange assay (BODIPY-GDP); format: biochemical; parameters: human K-Ras (G12S, aa 1-169); 6xHis tag + TEV cleavage site (N, cleaved yes); made in house; host or cells: E. coli BL21(DE3) for K-Ras; details: K-Ras(G12S) adduct
Method: This assay was performed as previously reported (2-5) with slight modifications. BODIPY-GDP-loaded K-Ras proteins were prepared freshly as follows. To a 10 μM solution of K-Ras(wildtype)·GDP, K-Ras(G12S)·GDP, or K-Ras(G12S)·GDP·1′ in SEC Buffer (1 mL) was added sequentially BODIPY-GDP (5 mM, 40 μL, Thermo Fisher, final concentration 200 μM) and Na-EDTA pH 8.0 (0.5 M, 5 μL, final concentration 2.5 mM). The mixture was incubated at 23° C. for 1 h, and a solution of MgCl2 (1.0 M, 20 μL, […]) was added to the reaction mixture. The protein solution was run through a PD-10 column to remove the excess nucleotide following the manufacturer's protocol. Briefly, sample (˜1.0 mL) and excess buffer (1.5 mL) were loaded onto the column (equilibrated with NucEx Buffer), and desalted protein was eluted with NucEx Buffer (3.5 mL). Protein concentration was measured with Bradford assay and adjusted to 1.25 μM with NucEx Buffer. 12 μL of this solution (triplicate for each condition) was added to wells of a black 384-well low-volume assay plate (Corning 4514). […] The plate was immediately placed in a TECAN Spark 20M plate reader, and fluorescence for BODIPY (excitation 488 nm, emission 520 nm) was read every 30 s over 1 h. Fluorescence intensity was normalized to values at time 0 and plotted again time. […]

[9] = Stability of substituted β-lactones in PBS 7.4 at 23° C.; format: physicochemical; details: after 24 h, pH 7.4
[10] = test system: BaF3/K-Ras(G12D) cells; experiment: Growth inhibition of BaF3/K-Ras(G12D) cells; format: cell-based, murine; details: Mus musculus, read-out: IC50, growth of BaF3/K-Ras(G12D) cells
Method: (§3) Cells were seeded into 96-well white flat bottom plates (1,000 cells/well) (Corning) and incubated overnight. Cells were treated with the indicated compounds in a nine-point threefold dilution series (100 μL final volume) and incubated for 72 h. Cell viability was assessed using a commercial CellTiter-Glo (CTG) luminescence-based assay (Promega). Briefly, the 96-well plates were equilibrated to room temperature before the addition of diluted CTG reagent […] (1:4 CTG reagent:PBS). Plates were placed on an orbital shaker for 30 min before recording luminescence using a Spark 20M (Tecan) plate reader.

[11] = test system: parental Ba/F3 cells (with IL-3); experiment: Cell viability assay (CellTiter-Glo), parental Ba/F3 cells; format: cell-based, murine; details: 10 μM
Method: as §3, with “Cells were treated with the indicated compounds in a nine-point threefold dilution series (100 μL final volume) and incubated for 72 h.” left out

Compound: C#Cc1cccc2cccc(-c3ncc4c(N5C[C@H]6CC[C@@H](C5)N6C(=O)C5CC(=O)O5)nc(OCC56CCCN5CCC6)nc4c3F)c12 (mixture of isomers) [(RS)-1]
- % covalent modification of wild type K-Ras [1]: 0%
- % covalent modification of K-Ras G12D [2]: 100%
- % covalent modification of K-Ras G12E [3]: 6.3%
- interaction between Raf-RBD and K-Ras(G12D) [4]: disrupted Ras-RafRBD binding

Compound: CN1CCC[C@H]1COc1nc2c(c(N3CCC4C(=O)OC4C3)n1)CCN(c1cccc3cccc(Cl)c13)C2 (some centres unmarked) [1′]
- extent of modification of K-Ras(G12S)·GDP ([5]; 1 hour, 23° C.): 64%
- extent of modification of K-Ras(G12S)·GDP ([5]; 12 h): 100%
- % covalent modification of K-Ras G12S ([5]; 24-h incubation, 100 μM compound, 23° C., pH 7.5): 100%
- reaction with GppNHp-loaded K-Ras(G12S) ([5]; GppNHp-loaded protein, identical conditions): no reaction was observed; also recorded: does not react
- % covalent modification of wild type K-Ras [1]: 7.0%
- covalent adducts with wild-type K-Ras protein ([6]; 10 μM compound, 4 μM protein): neither of these compounds formed covalent adducts
- % covalent modification of wild type K-Ras ([6]; 24-h incubation, 100 μM compound, pH 7.5): 7.0%
- % covalent modification of K-Ras G12D [2]: 7.0%
- change of melting temperature of K-Ras(G12S)·GDP on adduct formation [7]: +17.2 °C
- melting temperature (Tm) of the K-Ras(G12S)·GDP adduct ([7]; unmodified K-Ras(G12S)·GDP 53.7° C.): 70.9 °C
- % covalent modification of K-Ras G12E [3]: 12.0%
- EDTA promoted nucleotide exchange ([8]; EDTA): decreased the rate of EDTA promoted exchange
- Sos-catalyzed nucleotide exchange ([8]; Sos): blocked Sos-catalyzed exchange

Compound: CC(C)[C@@H]1C(=O)O[C@H]1C(=O)N1[C@@H]2CC[C@H]1CN(c1nc(OCC34CCCN3CCC4)nc3c(F)c(-c4cccc5cccc(Cl)c45)ncc13)C2 [Compound 4]
- material remaining intact (hydrolysis) [9]: > 90%
- IC50 [10]: 71 nM

Compound: C=C(F)C(=O)N1CCN(c2nc(OC[C@@H]3CCCN3C)nc3c2CCN(c2cccc4cccc(Cl)c24)C3)C[C@@H]1CC#N [adagrasib, reference compound]
- cell death of parental Ba/F3 cells [11]: complete cell death
